Data on 18 compounds can be found in patent US11173151B2, “Substituted triazole derivatives and uses thereof” (BAYER AKTIENGESELLSCHAFT, priority 2017, dated 2021).

For assay [1], the target named is T1, human V2 receptor (Homo sapiens, UniProt P30518).
T1 construct: expressed in transfected cells; host or cells: CHO K1 (ATCC) expressing firefly luciferase under a CRE-responsive promoter
In words: Cellular in vitro assay for determining vasopressin receptor activity, V2 receptor cell line (CHO, CRE-luciferase). It counts as cell-based. The note with it: CHO cell line transfected with human V2 receptor; [Arg8]-vasopressin at EC50 concentration, 3 hours; read-out: IC50 hV2.

For assay [2], the target named is T2, human V1a receptor (Homo sapiens, UniProt P37288).
T2 construct: expressed in transfected cells; host or cells: CHO K1 (ATCC), also stably transfected with a modified aequorin
Nature of the assay: Cellular in vitro assay for determining vasopressin receptor activity, V1a receptor cell line (CHO, aequorin luminescence). The note with it: for IC50: CHO cell line transfected with human V1a receptor, [Arg]-vasopressin at EC50 concentration, read-out: IC50 hV1a; for ratio IC50 hV2/hV1a: selectivity ratio IC50 hV2 / IC50 hV1a. It is filed as cell-based. The method, boiled down:
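Cells were plated the day before in medium containing 5 μg/ml coelenterazine and kept at 37° C. Compounds at various concentrations were then added for 10 minutes. Next, [Arg]-vasopressin at EC50 was applied and light output recorded at once, yielding IC50.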

T2 sequence (P37288 whole entry): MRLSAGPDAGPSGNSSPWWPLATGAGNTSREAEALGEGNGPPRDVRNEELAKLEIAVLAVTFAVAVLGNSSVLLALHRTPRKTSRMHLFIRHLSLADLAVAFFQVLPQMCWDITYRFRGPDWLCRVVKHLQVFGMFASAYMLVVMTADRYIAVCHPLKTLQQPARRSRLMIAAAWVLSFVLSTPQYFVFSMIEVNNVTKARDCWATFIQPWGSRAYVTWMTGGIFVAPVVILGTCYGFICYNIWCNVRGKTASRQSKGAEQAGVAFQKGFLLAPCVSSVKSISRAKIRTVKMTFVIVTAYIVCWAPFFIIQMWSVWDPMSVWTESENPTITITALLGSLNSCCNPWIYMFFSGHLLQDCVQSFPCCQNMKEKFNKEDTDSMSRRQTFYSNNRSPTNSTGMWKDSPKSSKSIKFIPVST
T1 sequence (P30518 whole entry): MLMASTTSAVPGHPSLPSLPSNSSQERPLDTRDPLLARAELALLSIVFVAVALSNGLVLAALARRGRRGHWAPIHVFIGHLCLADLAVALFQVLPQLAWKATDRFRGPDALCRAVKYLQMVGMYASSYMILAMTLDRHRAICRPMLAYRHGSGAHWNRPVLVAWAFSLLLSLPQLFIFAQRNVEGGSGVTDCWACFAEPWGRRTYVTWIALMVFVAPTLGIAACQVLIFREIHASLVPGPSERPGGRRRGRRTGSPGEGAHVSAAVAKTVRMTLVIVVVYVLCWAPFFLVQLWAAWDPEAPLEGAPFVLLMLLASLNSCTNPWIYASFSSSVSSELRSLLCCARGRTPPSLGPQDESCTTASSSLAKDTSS

For `O=C(NCCC(F)(F)F)c1ccccc1-n1cnc(Cn2nc(-c3ccc(Cl)cc3)n(C[C@H](O)C(F)(F)F)c2=O)n1` [Example 182, 2-[3-({3-(4-Chlorophenyl)-5-oxo-4-[(2S)-3,3,3-trifluoro-2-hydroxypropyl]-4,5-dihydro-1H-1,2,4-triazol-1-yl}methyl)-1H-1,2,4-triazol-1-yl]-N-(3,3,3-trifluoropropyl)benzamide], in assay [1], the IC50 came out at 2050 nM. In assay [2], the 50% inhibitory concentration (IC50) is 24 nM and the “ratio IC50 hV2/hV1a” value turned out to be 85.4.

In the case of `O=C(NCC1CS(=O)(=O)C1)c1ccccc1-n1cnc(Cn2nc(-c3ccc(Cl)cc3)n(C[C@H](O)C(F)(F)F)c2=O)n1` [Example 184, 2-[3-({3-(4-Chlorophenyl)-5-oxo-4-[(2S)-3,3,3-trifluoro-2-hydroxypropyl]-4,5-dihydro-1H-1,2,4-triazol-1-yl}methyl)-1H-1,2,4-triazol-1-yl]-N-[(1,1-dioxidothietan-3-yl)methyl]benzamide], the IC50 was determined as 3100 nM in assay [1] and 28.5 nM in assay [2]. In assay [2], the “ratio IC50 hV2/hV1a” value amounted to 108.8.

Regarding `O=C(NCCN1CCNC1=O)c1ccccc1-n1cnc(Cn2nc(-c3ccc(Cl)cc3)n(C[C@H](O)C(F)(F)F)c2=O)n1` [Example 185, 2-[3-({3-(4-Chlorophenyl)-5-oxo-4-[(2S)-3,3,3-trifluoro-2-hydroxypropyl]-4,5-dihydro-1H-1,2,4-triazol-1-yl}methyl)-1H-1,2,4-triazol-1-yl]-N-[2-(2-oxoimidazolidin-1-yl)ethyl]benzamide], the IC50 in assay [1] was found to be 1800 nM. In assay [2], the IC50 was found to be 9 nM and the “ratio IC50 hV2/hV1a” value is 199.4.

With `CC(C)(N)CNC(=O)c1cc(Cl)ccc1-n1cnc(Cn2nc(-c3ccc(Cl)cc3)n(C[C@H](O)C(F)(F)F)c2=O)n1` [Example 186, N-(2-Amino-2-methylpropyl)-5-chloro-2-[3-({3-(4-chlorophenyl)-5-oxo-4-[(2S)-3,3,3-trifluoro-2-hydroxypropyl]-4,5-dihydro-1H-1,2,4-triazol-1-yl}methyl)-1H-1,2,4-triazol-1-yl]benzamide], the IC50 in assay [1] turned out to be 243 nM; in assay [2] it was 5.25 nM. For the same compound, the “ratio IC50 hV2/hV1a” value in assay [2] was 46.2.

Consider `CNC(=O)c1cc(Cl)ccc1-n1cnc(Cn2nc(-c3ccc(Cl)cc3)n(C[C@H](O)C(F)(F)F)c2=O)n1` [Example 187, 5-chloro-2-[3-({3-(4-Chlorophenyl)-5-oxo-4-[(2S)-3,3,3-trifluoro-2-hydroxypropyl]-4,5-dihydro-1H-1,2,4-triazol-1-yl}methyl)-1H-1,2,4-triazol-1-yl]-N-methylbenzamide], for which, in assay [1], the IC50 came out at 48.5 nM. Also, in assay [2], the IC50 came to 12.3 nM and the “ratio IC50 hV2/hV1a” value came to 3.9.

Take `CC1(CNC(=O)c2ccccc2-n2cnc(Cn3nc(-c4ccc(Cl)cc4)n(C[C@H](O)C(F)(F)F)c3=O)n2)COC1` [Example 188, 2-[3-({3-(4-Chlorophenyl)-5-oxo-4-[(2S)-3,3,3-trifluoro-2-hydroxypropyl]-4,5-dihydro-1H-1,2,4-triazol-1-yl}ylmethyl)-1H-1,2,4-triazol-1-yl]-N-[(3-methyloxetan-3-yl)methyl]benzamide]: the IC50 in assay [1] was found to be 568 nM. In addition, in assay [2], the IC50 was found to be 6.83 nM and the “ratio IC50 hV2/hV1a” value came to 83.2.

On to `NC(=O)C1CN(C(=O)c2ccccc2-n2cnc(Cn3nc(-c4ccc(Cl)cc4)n(C[C@H](O)C(F)(F)F)c3=O)n2)C1` [Example 189, 1-{2-[3-({3-(4-Chlorophenyl)-5-oxo-4-[(2S)-3,3,3-trifluoro-2-hydroxypropyl]-4,5-dihydro-1H-1,2,4-triazol-1-yl}methyl)-1H-1,2,4-triazol-1-yl]benzoyl}azetidine-3-carboxamide], for which, in assay [1], the IC50 is 3650 nM. Moreover, in assay [2], the IC50 is 60.8 nM and the “ratio IC50 hV2/hV1a” value is 60.1.

Take `O=C1NCC2(CN(C(=O)c3ccccc3-n3cnc(Cn4nc(-c5ccc(Cl)cc5)n(C[C@H](O)C(F)(F)F)c4=O)n3)C2)N1` [Example 190, 2-{2-[3-({3-(4-Chlorophenyl)-5-oxo-4-[(2S)-3,3,3-trifluoro-2-hydroxypropyl]-4,5-dihydro-1H-1,2,4-triazol-1-yl}methyl)-1H-1,2,4-triazol-1-yl]benzoyl}-2,5,7-triazaspiro[3.4]octan-6-one]: the IC50 in assay [1] stood at 7050 nM. For the same compound, in assay [2], the IC50 worked out at 300 nM and the “ratio IC50 hV2/hV1a” value was 23.5.

Turning to `NC(=O)[C@H]1CCCN1C(=O)c1ccccc1-n1cnc(Cn2nc(-c3ccc(Cl)cc3)n(C[C@H](O)C(F)(F)F)c2=O)n1` [Example 194, 1-{2-[3-({3-(4-Chlorophenyl)-5-oxo-4-[(2S)-3,3,3-trifluoro-2-hydroxypropyl]-4,5-dihydro-1H-1,2,4-triazol-1-yl}methyl)-1H-1,2,4-triazol-1-yl]benzoyl}-D-prolinamide], the half-inhibitory concentration (IC50) in assay [1] amounted to 2950 nM. Further, in assay [2], the IC50 was found to be 63.5 nM and the “ratio IC50 hV2/hV1a” value is 46.5.

With `NC(=O)[C@@H]1CCCN1C(=O)c1ccccc1-n1cnc(Cn2nc(-c3ccc(Cl)cc3)n(C[C@H](O)C(F)(F)F)c2=O)n1` [Example 195, 1-{2-[3-({3-(4-Chlorophenyl)-5-oxo-4-[(2S)-3,3,3-trifluoro-2-hydroxypropyl]-4,5-dihydro-1H-1,2,4-triazol-1-yl}methyl)-1H-1,2,4-triazol-1-yl]benzoyl}-L-prolinamide], the IC50 in assay [1] amounted to 2390 nM. Also, in assay [2], the IC50 came out at 104 nM and the “ratio IC50 hV2/hV1a” value came out at 23.0.

In the case of `NC(=O)[C@@H]1CC(F)(F)CN1C(=O)c1ccccc1-n1cnc(Cn2nc(-c3ccc(Cl)cc3)n(C[C@H](O)C(F)(F)F)c2=O)n1` [Example 197, 1-{2-[3-({3-(4-Chlorophenyl)-5-oxo-4-[(2S)-3,3,3-trifluoro-2-hydroxypropyl]-4,5-dihydro-1H-1,2,4-triazol-1-yl}methyl)-1H-1,2,4-triazol-1-yl]benzoyl}-4,4-difluoro-L-prolinamide], the IC50 in assay [1] turned out to be 6950 nM; in assay [2] it was 49.5 nM. Also, in assay [2], the “ratio IC50 hV2/hV1a” value is reported as 140.4.

For the compound `NC(=O)[C@H]1CC(F)(F)CN1C(=O)c1ccccc1-n1cnc(Cn2nc(-c3ccc(Cl)cc3)n(C[C@H](O)C(F)(F)F)c2=O)n1` [Example 198, 1-{2-[3-({3-(4-Chlorophenyl)-5-oxo-4-[(2S)-3,3,3-trifluoro-2-hydroxypropyl]-4,5-dihydro-1H-1,2,4-triazol-1-yl}methyl)-1H-1,2,4-triazol-1-yl]benzoyl}-4,4-difluoro-D-prolinamide], the IC50 in assay [1] is 5400 nM. In assay [2], the IC50 amounted to 22 nM and the “ratio IC50 hV2/hV1a” value is 245.5.

Regarding `NC(=O)[C@@H]1CCN(C(=O)c2ccccc2-n2cnc(Cn3nc(-c4ccc(Cl)cc4)n(C[C@H](O)C(F)(F)F)c3=O)n2)C1` [Example 199, (3R)-1-{2-[3-({3-(4-Chlorophenyl)-5-oxo-4-[(2S)-3,3,3-trifluoro-2-hydroxypropyl]-4,5-dihydro-1H-1,2,4-triazol-1-yl}methyl)-1H-1,2,4-triazol-1-yl]benzoyl}pyrrolidine-3-carboxamide], in assay [1], the IC50 is 2420 nM. Moreover, in assay [2], the IC50 amounted to 36.5 nM and the “ratio IC50 hV2/hV1a” value is 66.4.

`NC(=O)[C@H]1CCN(C(=O)c2ccccc2-n2cnc(Cn3nc(-c4ccc(Cl)cc4)n(C[C@H](O)C(F)(F)F)c3=O)n2)C1` [Example 200, (3S)-1-{2-[3-({3-(4-Chlorophenyl)-5-oxo-4-[(2S)-3,3,3-trifluoro-2-hydroxypropyl]-4,5-dihydro-1H-1,2,4-triazol-1-yl}methyl)-1H-1,2,4-triazol-1-yl]benzoyl}pyrrolidine-3-carboxamide]: the IC50 in assay [1] worked out at 1730 nM. Besides, in assay [2], the IC50 stood at 11.2 nM and the “ratio IC50 hV2/hV1a” value is 153.3.

As for `CC1=NN=C(C)C1NC(=O)c1ccccc1-n1cnc(Cn2nc(-c3ccc(Cl)cc3)n(C[C@H](O)C(F)(F)F)c2=O)n1` [Example 201, 2-[3-({3-(4-Chlorophenyl)-5-oxo-4-[(2S)-3,3,3-trifluoro-2-hydroxypropyl]-4,5-dihydro-1H-1,2,4-triazol-1-yl}methyl)-1H-1,2,4-triazol-1-yl]-N-(3,5-dimethyl-4H-pyrazol-4-yl)benzamide], the IC50 in assay [1] worked out at 3750 nM. For the same compound, in assay [2], the IC50 worked out at 1.2 nM and the “ratio IC50 hV2/hV1a” value was 3125.0.

`O=C(NCc1cccc(F)c1F)c1ccccc1-n1cnc(Cn2nc(-c3ccc(Cl)cc3)n(C[C@H](O)C(F)(F)F)c2=O)n1` [Example 203, 2-[3-({3-(4-Chlorophenyl)-5-oxo-4-[(2S)-3,3,3-trifluoro-2-hydroxypropyl]-4,5-dihydro-1H-1,2,4-triazol-1-yl}methyl)-1H-1,2,4-triazol-1-yl]-N-(2,3-difluorobenzyl)benzamide]: the IC50 in assay [1] amounted to 225 nM. In addition, in assay [2], the IC50 came out at 8.35 nM and the “ratio IC50 hV2/hV1a” value came to 26.9.

For the compound `Nc1ccc(NC(=O)c2ccccc2-n2cnc(Cn3nc(-c4ccc(Cl)cc4)n(C[C@H](O)C(F)(F)F)c3=O)n2)cc1` [Example 205, N-(4-Aminophenyl)-2-[3-({3-(4-chlorophenyl)-5-oxo-4-[(2S)-3,3,3-trifluoro-2-hydroxypropyl]-4,5-dihydro-1H-1,2,4-triazol-1-yl}methyl)-1H-1,2,4-triazol-1-yl]benzamide], the IC50 in assay [1] came to 185 nM. Besides, in assay [2], the IC50 turned out to be 0.58 nM and the “ratio IC50 hV2/hV1a” value came to 321.7.

In the case of `Cn1nccc1CNC(=O)c1ccccc1-n1cnc(Cn2nc(-c3ccc(Cl)cc3)n(C[C@H](O)C(F)(F)F)c2=O)n1` [Example 206, 2-[3-({3-(4-Chlorophenyl)-5-oxo-4-[(2S)-3,3,3-trifluoro-2-hydroxypropyl]-4,5-dihydro-1H-1,2,4-triazol-1-yl}methyl)-1H-1,2,4-triazol-1-yl]-N-[(1-methyl-1H-pyrazol-5-yl)methyl]benzamide], in assay [1], the IC50 worked out at 835 nM. Further, in assay [2], the IC50 amounted to 1.45 nM and the “ratio IC50 hV2/hV1a” value was found to be 575.9.

By IC50 is commonly meant the point on the concentration scale where inhibition reaches its midpoint.
